Data: paper PMC12947280, “An Antifungal with a Novel Mechanism of Action Discovered via Resistance Gene-Guided Genome Mining” (ACS Central Science, 2026)
In brackets after ≈: the same amount, converted by molar mass. Read-outs that look alike come from different tables or passages of the source.

Tests used:
Experiment in all cases: Antifungal screening, broth microdilution MIC
Type in all cases: cell-based
[1] = tested on: Aspergillus flavus ATCC 204304; details: for MIC: ATCC204304, Aspergillus flavus ATCC 204304
Procedure: (§1) Antifungal screening of 1
(§2) Antifungal screening was performed by Micromyx, LLC (Kalamazoo, Michigan, USA). Test organisms were either reference strains from the American Type Culture Collection (ATCC; Manassas, VA), the Centers for Disease Control and Prevention (CDC; Atlanta, GA), or clinical isolates from the Micromyx (MMX) collection. Upon receipt at Micromyx, the isolates were streaked under suitable conditions onto agar medium appropriate to each organism. The yeast isolates were incubated for 24 hr at 35 °C and the fungi were incubated for 7 to 13 days at 35 °C, as appropriate. Colonies harvested from these growth plates were resuspended in the appropriate medium containing a cryoprotectant. Aliquots of each suspension were then frozen […]
(§3) Prior to testing, the yeast isolates were streaked from frozen vials onto Sabouraud Dextrose Agar (SAB; Becton Dickenson [BD]/BBL; Sparks, MD, Lot No. 2228660) and were incubated at 35°C for 24 hr. Additional fungal isolates were streaked from frozen vials onto potato dextrose agar (BD/BBL; Sparks, MD, Lot No. 2046481) and incubated under optimal conditions for […]
(§4) All MIC measurements were performed in RPMI1640 from Hyclone Laboratories (Logan, UT;
(§5) Cat. No. SH3001104; Lot No. AC10257966A) buffered with MOPS to pH-7 from Millipore […]
(§6) MIC values were determined using a broth microdilution procedure described by CLSI. 5,6.
(§7) Automated liquid handlers (Multidrop 384, Labsystems, Helsinki, Finland; Biomek 3000 and […]
(§8) Biomek FX, Beckman Coulter Fullerton CA) were used to conduct serial dilutions and liquid […]
(§9) Solutions of 1 were added in an 11 point 2x serial dilution in DMSO with a maximum tested concentration of 32 μg/ml in the culture medium. Drug solution was added at 1% v/v into 200 μl […]
(§10) A standardized inoculum of each test organism was prepared in appropriate media per CLSI methods.5,6 The plates were then inoculated with 10 µL of the diluted inoculum using the Biomek 3000 from low to high drug concentration, resulting in a final concentration of approximately 0.5 to 2.5 x 10^3 CFU/mL for yeast and 0.2 to 2.5 x 10^4 CFU/mL for the other fungi. An un-inoculated plate was incubated for the purpose of assessing solubility of the drug […]
(§11) The plates were stacked 3 to 4 high, covered with a sterile lid on the top plate, and incubated aerobically at 35 °C for 24, 48, and 72 h. For yeast, both the MIC based on complete inhibition and 50% inhibition were reported at 24 and 48 h. For other fungal isolates, the MIC values were recorded at 24 and 48 hr and were based on complete inhibition and 50% inhibition.
(§12) Intact protein LCMS analysis
(§13) 10 μM of recombinant S. cerevisiae ALS was incubated with 10 μM compound 1 in buffer (50 mM Tris pH 7.5, 100 mM KCl, 10 uM FAD, 1 mM TPP, 10 mM MgCl2 (with 2.5% DMSO from compound)) at 22 °C for 30 min. Unreacted 1 was removed by passing the reaction mixture through a 30 kDa MWCO filter (Millipore). The collected protein was then denatured and reduced by incubation with 6 M urea and 10 mM DTT at 37 °C for 1 h followed by 20 mM iodoacetamide alkylation for 30 min in dark. This reaction mixture then underwent buffer exchange into 100 mM Tris-HCl pH 8.0 and 10 mM CaCl2 buffer using a 30 kDa MWCO filter.
(§14) The protein was then incubated with sequencing grade chymotrypsin (Promega) (15:1,w/w) for […]
(§15) After digestion, the peptide mixture was immediately analysed by LC-MS/MS using a Waters I-class UPLC equipped with an ACQUITY UPLC BEH C18 column (2.1x50 mm, 1.7 µm, Waters) at 50 °C coupled to a Waters Synapt G2Si MS. The sample was injected and subjected to an LC gradient starting from 0.5% mobile phase B (ACN with 0.1% formic acid) for 5 min with linear increase to 40% B over 35 min. Mobile phase A was 0.1% formic acid water. Flow rate was maintained at 0.3 ml/min. MS/MS data was acquired in positive ionization mode with data dependent MS/MS acquisition. Peptide mapping was performed with PEAKs Studio 8.0 (Bioinformatics Solutions Inc.) followed by manual review to identify peptides putatively modified by covalent addition of 1. […]

[2] = tested on: Aspergillus niger ATCC 9508; details: for MIC: ATCC9508, Aspergillus niger ATCC 9508
Procedure: as §1, §2, §3, §4, §5, §6, §7, §8, §9, §10, §11, §12, §13, §14, §15

[3] = tested on: Aspergillus terreus ATCC MYA-3628; details: for MIC: Aspergillus terreus ATCC MYA-3628
Procedure: as §1, §2, §3, §4, §5, §6, §7, §8, §9, §10, §11, §12, §13, §14, §15

[4] = tested on: Fusarium oxysporum ATCC 48112; details: for MIC: ATCC48112, Fusarium oxysporum ATCC 48112
Procedure: as §1, §2, §3, §4, §5, §6, §7, §8, §9, §10, §11, §12, §13, §14, §15

[5] = tested on: Fusarium solani ATCC MYA-3636; details: for MIC: Fusarium solani ATCC MYA-3636
Procedure: as §1, §2, §3, §4, §5, §6, §7, §8, §9, §10, §11, §12, §13, §14, §15

[6] = tested on: Rhizopus oryzae ATCC 11886; details: for MIC: Rhizopus arrhizus, ATCC11886, Rhizopus oryzae ATCC 11886
Procedure: as §1, §2, §3, §4, §5, §6, §7, §8, §9, §10, §11, §12, §13, §14, §15

[7] = tested on: Scedosporium apiospermum ATCC MYA-3635; details: for MIC: Scedosporium apiospermum ATCC MYA-3635
Procedure: as §1, §2, §3, §4, §5, §6, §7, §8, §9, §10, §11, §12, §13, §14, §15

[8] = 24 hr, read-out: MIC 100% growth inhibition
[9] = 24 hr, read-out: MIC >50% growth inhibition
[10] = 48 hr, read-out: MIC 100% growth inhibition
[11] = 48 hr, read-out: MIC >50% growth inhibition

## CCCC1C(C)=CC2CC=CC3(C)C2C1C(=O)C31C(=O)NC(CCCO)C1=O (centres unmarked) [compound 1]
[1]; [8]
  MIC: > 32 µg/mL
[1]; [9]
  MIC: > 32 µg/mL
[1]; [10]
  MIC: > 32 µg/mL
[1]; [11]
  MIC: > 32 µg/mL
[1]; Aspergillus flavus, species summary
  MIC (Table S5): > 32
[2]; [8]
  MIC: 2 µg/mL (≈ 5.19 µM)
[2]; [9]
  MIC: 1 µg/mL (≈ 2.59 µM)
[2]; [10]
  MIC: 32 µg/mL (≈ 83 µM)
[2]; [11]
  MIC: 8 µg/mL (≈ 20.8 µM)
[2]; Aspergillus niger, species summary
  MIC (Table S5): 2
[3]; [8]
  MIC: > 32 µg/mL
[3]; [9]
  MIC: > 32 µg/mL
[3]; [10]
  MIC: > 32 µg/mL
[3]; [11]
  MIC: > 32 µg/mL
[3]; Aspergillus terreus, species summary
  MIC (Table S5): > 32
[4]; [8]
  MIC: > 32 µg/mL
[4]; [9]
  MIC: > 32 µg/mL
[4]; [10]
  MIC: > 32 µg/mL
[4]; [11]
  MIC: > 32 µg/mL
[4]; Fusarium oxysporum, species summary
  MIC (Table S5): > 32
[5]; [8]
  MIC: > 32 µg/mL
[5]; [9]
  MIC: > 32 µg/mL
[5]; [10]
  MIC: > 32 µg/mL
[5]; [11]
  MIC: > 32 µg/mL
[5]; Fusarium solani, species summary
  MIC (Table S5): > 32
[6]; [8]
  MIC: 1 µg/mL (≈ 2.59 µM)
[6]; [9]
  MIC: 0.5 µg/mL (≈ 1.3 µM)
[6]; [10]
  MIC: 16 µg/mL (≈ 41.5 µM)
[6]; [11]
  MIC: 8 µg/mL (≈ 20.8 µM)
[6]; Rhizopus oryzae, species summary
  MIC (Table S5): 1
[7]; [8]
  MIC: 8 µg/mL (≈ 20.8 µM)
[7]; [9]
  MIC: 1 µg/mL (≈ 2.59 µM)
[7]; [10]
  MIC: > 32 µg/mL
[7]; [11]
  MIC: > 32 µg/mL
[7]; Scedosporium apiospermum, species summary
  MIC (Table S5): 8
